{
  "source": "ChEMBL document CHEMBL1159259",
  "about": "“A bioactive tetraprenylphenol from Lactarius lignyotus” (1995)",
  "type_in_all_cases": "functional",
  "set-up_in_all_cases": "scale not given: the % may be the effect or the level left",
  "key": {"HeLa S3 [1]": {"tested_on": "HeLa S3", "test": "Inhibition of DNA synthesis in human HeLaS3 cells assessed as [3H]thymidine incorporation at 10.4 ug/ml after 45 mins by liquid scintillation counting"}, "HeLa S3 [2]": {"tested_on": "HeLa S3", "test": "Inhibition of DNA synthesis in human HeLaS3 cells assessed as [3H]thymidine incorporation at 25 ug/ml after 45 mins by liquid scintillation counting"}, "HeLa S3 [3]": {"tested_on": "HeLa S3", "test": "Inhibition of DNA synthesis in human HeLaS3 cells assessed as [3H]thymidine incorporation at 50 ug/ml after 45 mins by liquid scintillation counting"}, "HeLa S3 [4]": {"tested_on": "HeLa S3", "test": "Inhibition of DNA synthesis in human HeLaS3 cells assessed as [3H]thymidine incorporation at 75 ug/ml after 45 mins by liquid scintillation counting"}, "HeLa S3 [5]": {"tested_on": "HeLa S3", "test": "Inhibition of protein synthesis in human HeLaS3 cells assessed as [3H]leucine incorporation at 10.4 ug/ml after 45 mins by liquid scintillation counting"}, "HeLa S3 [6]": {"tested_on": "HeLa S3", "test": "Inhibition of protein synthesis in human HeLaS3 cells assessed as [3H]leucine incorporation at 25 ug/ml after 45 mins by liquid scintillation counting"}, "HeLa S3 [7]": {"tested_on": "HeLa S3", "test": "Inhibition of protein synthesis in human HeLaS3 cells assessed as [3H]leucine incorporation at 50 ug/ml after 45 mins by liquid scintillation counting"}, "HeLa S3 [8]": {"tested_on": "HeLa S3", "test": "Inhibition of protein synthesis in human HeLaS3 cells assessed as [3H]leucine incorporation at 75 ug/ml after 45 mins by liquid scintillation counting"}, "HeLa S3 [9]": {"tested_on": "HeLa S3", "test": "Inhibition of RNA synthesis in human HeLaS3 cells assessed as [3H]uridine incorporation at 10.4 ug/ml after 45 mins by liquid scintillation counting"}, "HeLa S3 [10]": {"tested_on": "HeLa S3", "test": "Inhibition of RNA synthesis in human HeLaS3 cells assessed as [3H]uridine incorporation at 25 ug/ml after 45 mins by liquid scintillation counting"}, "HeLa S3 [11]": {"tested_on": "HeLa S3", "test": "Inhibition of RNA synthesis in human HeLaS3 cells assessed as [3H]uridine incorporation at 50 ug/ml after 45 mins by liquid scintillation counting"}, "HeLa S3 [12]": {"tested_on": "HeLa S3", "test": "Inhibition of RNA synthesis in human HeLaS3 cells assessed as [3H]uridine incorporation at 75 ug/ml after 45 mins by liquid scintillation counting"}, "HL-60 [13]": {"tested_on": "HL-60", "test": "Inhibition of DNA synthesis in human HL60 cells assessed as [3H]thymidine incorporation at 10.4 ug/ml after 45 mins by liquid scintillation counting"}, "HL-60 [14]": {"tested_on": "HL-60", "test": "Inhibition of DNA synthesis in human HL60 cells assessed as [3H]thymidine incorporation at 25 ug/ml after 45 mins by liquid scintillation counting"}, "HL-60 [15]": {"tested_on": "HL-60", "test": "Inhibition of DNA synthesis in human HL60 cells assessed as [3H]thymidine incorporation at 50 ug/ml after 45 mins by liquid scintillation counting"}, "HL-60 [16]": {"tested_on": "HL-60", "test": "Inhibition of DNA synthesis in human HL60 cells assessed as [3H]thymidine incorporation at 75 ug/ml after 45 mins by liquid scintillation counting"}, "HL-60 [17]": {"tested_on": "HL-60", "test": "Inhibition of protein synthesis in human HL60 cells assessed as [3H]leucine incorporation at 10.4 ug/ml after 45 mins by liquid scintillation counting"}, "HL-60 [18]": {"tested_on": "HL-60", "test": "Inhibition of protein synthesis in human HL60 cells assessed as [3H]leucine incorporation at 25 ug/ml after 45 mins by liquid scintillation counting"}, "HL-60 [19]": {"tested_on": "HL-60", "test": "Inhibition of protein synthesis in human HL60 cells assessed as [3H]leucine incorporation at 50 ug/ml after 45 mins by liquid scintillation counting"}, "HL-60 [20]": {"tested_on": "HL-60", "test": "Inhibition of protein synthesis in human HL60 cells assessed as [3H]leucine incorporation at 75 ug/ml after 45 mins by liquid scintillation counting"}, "HL-60 [21]": {"tested_on": "HL-60", "test": "Inhibition of RNA synthesis in human HL60 cells assessed as [3H]uridine incorporation at 10.4 ug/ml after 45 mins by liquid scintillation counting"}, "HL-60 [22]": {"tested_on": "HL-60", "test": "Inhibition of RNA synthesis in human HL60 cells assessed as [3H]uridine incorporation at 25 ug/ml after 45 mins by liquid scintillation counting"}, "HL-60 [23]": {"tested_on": "HL-60", "test": "Inhibition of RNA synthesis in human HL60 cells assessed as [3H]uridine incorporation at 50 ug/ml after 45 mins by liquid scintillation counting"}, "HL-60 [24]": {"tested_on": "HL-60", "test": "Inhibition of RNA synthesis in human HL60 cells assessed as [3H]uridine incorporation at 75 ug/ml after 45 mins by liquid scintillation counting"}},
  "data": [
    {"smiles": "CC(C)=CCC/C(C)=C/CC/C(C)=C/CC/C(C)=C/Cc1cc(O)ccc1O", "note": "[GERANYLGERANYLHYDROQUINONE]", "values": [
      {"measurement": "Activity", "setting": "HeLa S3 [1]", "result": 100, "unit": "%"},
      {"measurement": "Activity", "setting": "HeLa S3 [2]", "result": 74, "unit": "%"},
      {"measurement": "Activity", "setting": "HeLa S3 [3]", "result": 83, "unit": "%"},
      {"measurement": "Activity", "setting": "HeLa S3 [4]", "result": 49, "unit": "%"},
      {"measurement": "Activity", "setting": "HeLa S3 [5]", "result": 100, "unit": "%"},
      {"measurement": "Activity", "setting": "HeLa S3 [6]", "result": 92, "unit": "%"},
      {"measurement": "Activity", "setting": "HeLa S3 [7]", "result": 67, "unit": "%"},
      {"measurement": "Activity", "setting": "HeLa S3 [8]", "result": 61, "unit": "%"},
      {"measurement": "Activity", "setting": "HeLa S3 [9]", "result": 96, "unit": "%"},
      {"measurement": "Activity", "setting": "HeLa S3 [10]", "result": 83, "unit": "%"},
      {"measurement": "Activity", "setting": "HeLa S3 [11]", "result": 91, "unit": "%"},
      {"measurement": "Activity", "setting": "HeLa S3 [12]", "result": 86, "unit": "%"},
      {"measurement": "Activity", "setting": "HL-60 [13]", "result": 55, "unit": "%"},
      {"measurement": "Activity", "setting": "HL-60 [14]", "result": 38, "unit": "%"},
      {"measurement": "Activity", "setting": "HL-60 [15]", "result": 20, "unit": "%"},
      {"measurement": "Activity", "setting": "HL-60 [16]", "result": 17, "unit": "%"},
      {"measurement": "Activity", "setting": "HL-60 [17]", "result": 85, "unit": "%"},
      {"measurement": "Activity", "setting": "HL-60 [18]", "result": 52, "unit": "%"},
      {"measurement": "Activity", "setting": "HL-60 [19]", "result": 52, "unit": "%"},
      {"measurement": "Activity", "setting": "HL-60 [20]", "result": 32, "unit": "%"},
      {"measurement": "Activity", "setting": "HL-60 [21]", "result": 95, "unit": "%"},
      {"measurement": "Activity", "setting": "HL-60 [22]", "result": 32, "unit": "%"},
      {"measurement": "Activity", "setting": "HL-60 [23]", "result": 36, "unit": "%"},
      {"measurement": "Activity", "setting": "HL-60 [24]", "result": 42, "unit": "%"}
    ]},
    {"smiles": "COc1ccc(O)c(CC=C(C)C)c1", "values": [
      {"measurement": "Activity", "setting": "HeLa S3 [1]", "result": 100, "unit": "%"},
      {"measurement": "Activity", "setting": "HeLa S3 [2]", "result": 59, "unit": "%"},
      {"measurement": "Activity", "setting": "HeLa S3 [3]", "result": 70, "unit": "%"},
      {"measurement": "Activity", "setting": "HeLa S3 [4]", "result": 31, "unit": "%"},
      {"measurement": "Activity", "setting": "HeLa S3 [5]", "result": 96, "unit": "%"},
      {"measurement": "Activity", "setting": "HeLa S3 [6]", "result": 43, "unit": "%"},
      {"measurement": "Activity", "setting": "HeLa S3 [7]", "result": 38, "unit": "%"},
      {"measurement": "Activity", "setting": "HeLa S3 [8]", "result": 37, "unit": "%"},
      {"measurement": "Activity", "setting": "HeLa S3 [9]", "result": 97, "unit": "%"},
      {"measurement": "Activity", "setting": "HeLa S3 [10]", "result": 86, "unit": "%"},
      {"measurement": "Activity", "setting": "HeLa S3 [11]", "result": 91, "unit": "%"},
      {"measurement": "Activity", "setting": "HeLa S3 [12]", "result": 90, "unit": "%"},
      {"measurement": "Activity", "setting": "HL-60 [13]", "result": 64, "unit": "%"},
      {"measurement": "Activity", "setting": "HL-60 [14]", "result": 32, "unit": "%"},
      {"measurement": "Activity", "setting": "HL-60 [15]", "result": 14, "unit": "%"},
      {"measurement": "Activity", "setting": "HL-60 [16]", "result": 1.5, "unit": "%"},
      {"measurement": "Activity", "setting": "HL-60 [17]", "result": 49, "unit": "%"},
      {"measurement": "Activity", "setting": "HL-60 [18]", "result": 38, "unit": "%"},
      {"measurement": "Activity", "setting": "HL-60 [19]", "result": 35, "unit": "%"},
      {"measurement": "Activity", "setting": "HL-60 [20]", "result": 32, "unit": "%"},
      {"measurement": "Activity", "setting": "HL-60 [21]", "result": 98, "unit": "%"},
      {"measurement": "Activity", "setting": "HL-60 [22]", "result": 50, "unit": "%"},
      {"measurement": "Activity", "setting": "HL-60 [23]", "result": 55, "unit": "%"},
      {"measurement": "Activity", "setting": "HL-60 [24]", "result": 38, "unit": "%"}
    ]}
  ]
}
